Where no end group is shown, it is not given here.
Experiments:
Experiment in all cases: biochemical
Type in all cases: binding
DRB1*1302 = DRB1*1302 (Homo sapiens, UniProt P01903+P01911, A100E/A169T/K41T/L162R/M171V/P40S/Q125H/Q178H/Q39Y/Q99D/R42S/S66N/T262R/V115G/W38E/Y61H); conditions: read-out: IC50 nM to purified HLA DRB1*1302
DRB1*1501 = molecular target: T1, DRB1*1501 (Homo sapiens, UniProt P01903+P01911); conditions: read-out: IC50 nM to purified HLA DRB1*1501
T1 construct: made in house; host or cells: EBV-transformed homozygous human B cell lines, transfected fibroblasts or single-allele 721.221 transfectants

DRB1*0401 = molecular target: T2, DRB1*0401 (Homo sapiens, UniProt P01903+P01911, A100K/A169T/F76Y/I96L/K127E/L162R/M171V/N62H/P40V/Q125Y/R42H/S133A/S149N/S66Y/V115G/V209L/W38E); conditions: read-out: IC50 nM to purified HLA DRB1*0401
T2 construct: made in house; host or cells: EBV-transformed homozygous human B cell lines, transfected fibroblasts or single-allele 721.221 transfectants

DRB1*0301 = molecular target: T3, DRB1*0301 (Homo sapiens, UniProt P01903+P01911, A100K/A102G/A103R/A169T/F55Y/I96L/K41T/L162R/M171V/P40S/Q125H/Q178H/Q39Y/R42S/S66N/T106N/T262R/W38E/Y61H)
T3 construct: made in house; host or cells: EBV-transformed homozygous human B cell lines, transfected fibroblasts or single-allele 721.221 transfectants
T3 sequence (P01903 26-254, other chains not shown): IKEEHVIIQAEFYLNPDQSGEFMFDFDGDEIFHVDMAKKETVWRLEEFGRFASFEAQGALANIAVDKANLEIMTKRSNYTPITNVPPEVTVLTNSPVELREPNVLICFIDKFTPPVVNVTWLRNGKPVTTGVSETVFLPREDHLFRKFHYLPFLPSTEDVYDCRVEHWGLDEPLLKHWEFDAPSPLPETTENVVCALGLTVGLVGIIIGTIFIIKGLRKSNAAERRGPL

DRB1*0101 = molecular target: T4, DRB1*0101 (Homo sapiens, UniProt P01903+P01911, A100R/D57E/F55L/F60I/F76Y/I96L/L162R/M171V/P40L/Q125E/R42F/V115G/Y59C); conditions: IC50 nM to purified HLA DRB1*0101
T4 construct: made in house; host or cells: EBV-transformed homozygous human B cell lines, transfected fibroblasts or single-allele 721.221 transfectants

Sequence of DRB1*1302 (P01903 26-254 limits assumed, other chains not shown): as the sequence (P01903 26-254, other chains not shown) above

| Molecule | IC50 (DRB1*1302) [nM] | IC50 (DRB1*1501) [nM] | IC50 (DRB1*0401) [nM] | IC50 (DRB1*0301) [nM] | IC50 (DRB1*0101) [nM] |
| --- | --- | --- | --- | --- | --- |
| CC[C@H](C)[C@H](NC(=O)[C@H](Cc1ccc(O)cc1)NC(=O)[C@@H](NC(=O)[C@@H](NC(=O)[C@@H]1CCCN1C(=O)[C@H](CC(N)=O)NC(=O)[C@H](CCC(N)=O)NC(=O)[C@H](Cc1ccc(O)cc1)NC(=O)[C@H](CC(C)C)NC(=O)[C@H](CCCCN)NC(=O)[C@@H](NC(=O)[C@@H](N)CCC(N)=O)[C@@H](C)O)[C@@H](C)O)[C@@H](C)O)C(=O)N[C@@H](CO)C(=O)N[C@H](C(=O)NCC(=O)N[C@H](C(=O)O)[C@@H](C)O)C(C)C [Flu.HA.203] | 18 | 60 | – | – | – |
| CC(C)C[C@H](NC(=O)[C@H](CCCCN)NC(=O)[C@H](CCCNC(=N)N)NC(=O)[C@H](CO)NC(=O)[C@H](CCC(=O)O)NC(=O)[C@H](C)NC(=O)[C@H](CO)NC(=O)[C@H](Cc1ccccc1)NC(=O)CNC(=O)[C@H](CCC(=O)O)NC(=O)[C@@H](N)CC(C)C)C(=O)N[C@@H](CC(C)C)C(=O)N[C@@H](CC(C)C)C(=O)N[C@H](C(=O)N[C@H](C(=O)O)C(C)C)C(C)C [Flu.PA.658] | 2270 | – | 861 | 661 | 12 |
| CSCC[C@H](NC(=O)[C@H](CCCCN)NC(=O)[C@H](CO)NC(=O)[C@@H](N)C(C)C)C(=O)NCC(=O)N[C@H](C(=O)N[C@@H](CC(=O)O)C(=O)N[C@@H](CCC(=O)O)C(=O)N[C@@H](Cc1ccc(O)cc1)C(=O)N[C@@H](CO)C(=O)N[C@@H](CO)C(=O)N[C@H](C(=O)N[C@@H](CCC(=O)O)C(=O)N[C@@H](CCCNC(=N)N)C(=O)N[C@H](C(=O)O)C(C)C)[C@@H](C)O)C(C)C [Flu.PB2.483] | 1850 | – | – | 1020 | – |
| MEWLKTRPILSPLTK [Flu.M1.46] | 3870 | 111 | 528 | – | 52 |
| CSCC[C@H](NC(=O)[C@H](CC(C)C)NC(=O)[C@@H](NC(=O)[C@H](CC(C)C)NC(=O)[C@@H](N)CC(C)C)C(C)C)C(=O)N[C@@H](CCC(=O)O)C(=O)N[C@@H](CC(N)=O)C(=O)N[C@@H](CCC(=O)O)C(=O)N[C@@H](CCCNC(=N)N)C(=O)N[C@H](C(=O)N[C@@H](CC(C)C)C(=O)N[C@@H](CC(=O)O)C(=O)N[C@@H](Cc1ccccc1)C(=O)N[C@@H](Cc1c[nH]cn1)C(=O)N[C@@H](CC(=O)O)C(=O)O)[C@@H](C)O [Flu.HA.444] | – | – | – | 64 | – |
| CC[C@H](C)[C@H](N)C(=O)NCC(=O)N[C@@H](CC(N)=O)C(=O)N[C@@H](CCSC)C(=O)N[C@H](C(=O)N[C@@H](CO)C(=O)N[C@H](C(=O)N[C@@H](Cc1c[nH]c2ccccc12)C(=O)N[C@H](C(=O)N[C@@H](CO)C(=O)N[C@@H](Cc1c[nH]cn1)C(=O)N[C@@H](CO)C(=O)N[C@H](C(=O)N[C@@H](Cc1c[nH]cn1)C(=O)N[C@H](C(=O)NCC(=O)O)[C@@H](C)O)[C@@H](C)CC)C(C)C)[C@@H](C)CC)[C@@H](C)CC [Flu.NA.26] | 5950 | 81 | – | – | 1050 |
| CC[C@H](C)[C@H](NC(=O)[C@H](CC(C)C)NC(=O)[C@H](CC(=O)O)NC(=O)[C@H](CC(=O)O)NC(=O)[C@H](CCCCN)NC(=O)[C@H](CC(C)C)NC(=O)CNC(=O)[C@H](C)NC(=O)[C@@H](N)CO)C(=O)N[C@@H](CCC(=O)O)C(=O)N[C@@H](CC(N)=O)C(=O)N[C@@H](CC(C)C)C(=O)N[C@@H](CCC(N)=O)C(=O)N[C@@H](C)C(=O)N[C@@H](Cc1ccc(O)cc1)C(=O)O [Flu.M1.229] | – | – | – | 64 | – |
| CC[C@H](C)[C@H](NC(=O)[C@H](CC(N)=O)NC(=O)[C@H](CC(N)=O)NC(=O)[C@H](CCCNC(=N)N)NC(=O)[C@H](Cc1c[nH]c2ccccc12)NC(=O)[C@H](CO)NC(=O)[C@H](CCCCN)NC(=O)[C@@H](NC(=O)[C@@H](NC(=O)[C@H](CC(=O)O)NC(=O)[C@@H](NC(=O)[C@@H](NC(=O)[C@@H](NC(=O)CNC(=O)[C@H](CC(N)=O)NC(=O)[C@@H](N)Cc1ccc(O)cc1)[C@@H](C)CC)[C@@H](C)CC)[C@@H](C)O)[C@@H](C)O)[C@@H](C)CC)C(=O)O [Flu.NA.188] | 370 | 31 | – | – | – |
| TRPILSPLTKGILGF [Flu.M1.51] | 292 | 140 | – | – | 423 |
| CC[C@H](C)[C@H](NC(=O)[C@H](CCCNC(=N)N)NC(=O)[C@H](CCCCN)NC(=O)[C@@H](NC(=O)[C@H](C)NC(=O)[C@@H](NC(=O)[C@H](CCC(N)=O)NC(=O)[C@H](CO)NC(=O)[C@H](CC(=O)O)NC(=O)[C@@H](NC(=O)[C@H](CC(C)C)NC(=O)[C@@H](NC(=O)[C@H](CO)NC(=O)[C@H](CO)NC(=O)[C@@H](N)CC(=O)O)[C@@H](C)CC)[C@@H](C)O)[C@@H](C)O)[C@@H](C)O)C(=O)O [Flu.PB2.743] | – | – | – | 36 | – |
| CC[C@H](C)[C@H](NC(=O)[C@H](CCCNC(=N)N)NC(=O)[C@H](CCC(=O)O)NC(=O)[C@@H](N)C(C)C)C(=O)N[C@@H](CC(C)C)C(=O)N[C@@H](CCCCN)C(=O)N[C@@H](CCC(=O)O)C(=O)N[C@@H](CCC(=O)O)C(=O)N[C@@H](CO)C(=O)N[C@@H](CC(=O)O)C(=O)N[C@@H](CCC(=O)O)C(=O)N[C@@H](C)C(=O)N[C@@H](CC(C)C)C(=O)N[C@@H](CCCCN)C(=O)N[C@@H](CCSC)C(=O)O [Flu.NS1.68] | 5060 | – | 679 | 1050 | 5190 |
| CC(C)C[C@H](NC(=O)[C@H](C)NC(=O)CNC(=O)[C@H](CCC(N)=O)NC(=O)[C@@H](NC(=O)[C@H](CC(C)C)NC(=O)[C@H](Cc1ccccc1)NC(=O)[C@H](Cc1ccccc1)NC(=O)[C@@H](NC(=O)[C@@H](N)CCCNC(=N)N)[C@@H](C)O)[C@@H](C)O)C(=O)N[C@@H](CC(C)C)C(=O)N[C@@H](CC(N)=O)C(=O)N[C@@H](CC(=O)O)C(=O)N[C@@H](CCCCN)C(=O)N[C@@H](Cc1c[nH]cn1)C(=O)N[C@@H](CO)C(=O)O [Flu.NA.110] | 3210 | 790 | 251 | – | 16 |
| CC[C@H](C)[C@H](NC(=O)[C@H](CC(C)C)NC(=O)[C@@H](N)Cc1ccccc1)C(=O)N[C@@H](CC(C)C)C(=O)NCC(=O)N[C@@H](CCCCN)C(=O)N[C@@H](CCC(=O)O)C(=O)N[C@@H](CC(=O)O)C(=O)N[C@@H](CCCNC(=N)N)C(=O)N[C@@H](CCCNC(=N)N)C(=O)N[C@@H](Cc1ccc(O)cc1)C(=O)NCC(=O)N1CCC[C@H]1C(=O)N[C@@H](C)C(=O)N[C@@H](CC(C)C)C(=O)O [Flu.PB2.697] | 118 | – | 1740 | 565 | 8390 |
| CC(C)C[C@H](NC(=O)[C@H](CCC(=O)O)NC(=O)[C@@H](NC(=O)[C@H](CO)NC(=O)[C@H](CCCCN)NC(=O)[C@@H](N)C(C)C)C(C)C)C(=O)N[C@@H](CC(=O)O)C(=O)N[C@@H](C)C(=O)N1CCC[C@H]1C(=O)N[C@@H](CC(N)=O)C(=O)N[C@@H](Cc1ccc(O)cc1)C(=O)N[C@@H](Cc1c[nH]cn1)C(=O)N[C@@H](Cc1ccc(O)cc1)C(=O)N[C@@H](CCC(=O)O)C(=O)N[C@@H](CCC(=O)O)C(=O)O [Flu.NA.244] | 197 | – | – | 65 | – |
| CC[C@H](C)[C@H](NC(=O)[C@H](CC(C)C)NC(=O)[C@H](Cc1c[nH]c2ccccc12)NC(=O)[C@@H](NC(=O)[C@@H](NC(=O)[C@H](CC(N)=O)NC(=O)[C@H](CCCNC(=N)N)NC(=O)[C@H](Cc1ccccc1)NC(=O)[C@H](Cc1ccccc1)NC(=O)[C@H](CO)NC(=O)[C@H](CO)NC(=O)[C@@H](N)CCCCN)C(C)C)C(C)C)C(=O)N[C@@H](CCCCN)C(=O)N[C@@H](CCCCN)C(=O)N[C@@H](CC(N)=O)C(=O)O [Flu.HA.156] | 20 | 832 | 474 | – | 46 |
| CEQIADSQHRSHRQM [Flu.M1.154] | – | – | – | 804 | – |
| CC[C@H](C)[C@H](NC(=O)[C@@H](N)CC(C)C)C(=O)N[C@@H](CC(=O)O)C(=O)N[C@@H](Cc1ccccc1)C(=O)N[C@@H](CC(C)C)C(=O)N[C@@H](CCCCN)C(=O)N[C@@H](CC(=O)O)C(=O)N[C@H](C(=O)N[C@@H](CCSC)C(=O)N[C@@H](CCC(=O)O)C(=O)N[C@@H](CO)C(=O)N[C@@H](CCSC)C(=O)N[C@@H](CC(=O)O)C(=O)N[C@@H](CCCCN)C(=O)N[C@@H](CCC(=O)O)C(=O)O)C(C)C [Flu.PB1.166] | – | – | – | 120 | – |
| CC[C@H](C)[C@H](NC(=O)[C@H](CC(C)C)NC(=O)[C@H](CCSC)NC(=O)[C@H](CC(C)C)NC(=O)[C@H](Cc1c[nH]c2ccccc12)NC(=O)[C@H](CC(=O)O)NC(=O)[C@H](CCCNC(=N)N)NC(=O)[C@H](CO)NC(=O)[C@H](CCSC)NC(=O)[C@H](CCC(=O)O)NC(=O)[C@H](CCC(=O)O)NC(=O)[C@@H](N)CC(C)C)C(=O)N1CCC[C@H]1C(=O)N[C@@H](CCCCN)C(=O)N[C@@H](CCC(N)=O)C(=O)O [Flu.NS1.98] | – | – | – | 170 | – |
| CC(C)C[C@H](NC(=O)[C@H](CO)NC(=O)[C@H](CCCCN)NC(=O)[C@H](CCC(N)=O)NC(=O)[C@H](CC(=O)O)NC(=O)[C@H](CCCNC(=N)N)NC(=O)[C@H](CCCNC(=N)N)NC(=O)[C@H](CC(C)C)NC(=O)[C@H](CCCNC(=N)N)NC(=O)[C@H](CC(=O)O)NC(=O)[C@@H](N)CC(C)C)C(=O)N[C@@H](CCCNC(=N)N)C(=O)NCC(=O)N[C@@H](CCCNC(=N)N)C(=O)NCC(=O)O [Flu.NS1.36] | – | – | – | 83 | 800 |
